In patent publication US12552834B2, “Selective MENA binding peptides” (MASSACHUSETTS INSTITUTE OF TECHNOLOGY, priority 2021, dated 2026):
“Also recorded” adds a separate entry of the source. Where no end group is shown, it is not given here. disordered linker = not defined here

How the values were obtained:
[1] = target: T1, ENAH EVH1 domain (Homo sapiens, UniProt Q8N8S7); assay: Biolayer interferometry (BLI), SUMO-peptide fusions binding monomeric ENAH EVH1 domain WT
T1 construct: places a 6×-His and TEV cleavage tag N-terminal to the EVH1 domain; 6×-His + TEV cleavage site (N, cleaved yes); made in house; host or cells: E. coli Rosetta2(DE3)
Description: All BLI experiments were performed with 2 replicates on an Octet Red96 instrument (ForteBio). […] The loaded tips were immersed in a solution of ENAH EVH1 domain at a relevant dilution series in BLI buffer at an orbital shake speed of 1000 rpm and run until the binding signal plateaued. ENAH-bound tips were subsequently placed into BLI buffer only for dissociation and run until the binding signal plateaued. KD values were obtained through steady state analysis. […] The association phases were then fit to a one-phase binding model in Prism and the equilibrium steady-state binding signal values from that fit were plotted against ENAH concentration and fit to a single-site specific binding model in Prism to obtain dissociation constants. Errors reported are the standard deviation of two replicates.
Monomeric ENAH, EVL, or VASP EVH1 domains for use in BLI and ITC experiments, or ENAH EVH1-peptide fusions for crystallography was cloned into a pMCSG7 vector (gift from Frank Gertler, MIT), which places a 6×-His and TEV cleavage tag N-terminal to the EVH1 domain. These constructs were transformed into Rosetta2(DE3) cells and grown in 2×YT media supplemented with 100 μg/mL ampicillin. Cells were grown while shaking at 37° C. to an O.D. 600 of 0.5-0.7, and then cooled on ice for at least 20 minutes. They were then induced with 0.5 mM IPTG and grown while shaking at 18° C. overnight. Induced cultures were resuspended in 25 mL of wash buffer (20 mM Hepes pH 7.6, 500 mM NaCl, 20 mM imidazole) and frozen at −80° C. overnight. The next day, cultures were sonicated, spun down, and applied to Ni-NTA acid agarose resin equilibrated with wash buffer, and washed as described above. Samples were eluted in 10 mL elution buffer (20 mM Hepes pH 7.6, 500 mM NaCl, […]). TEV protease was added to the elution at a ratio of 1 mg TEV:50 mg tagged protein along with 1 mM DTT. This mixture was dialyzed against TEV cleavage buffer (50 mM Hepes pH 8.0, 300 mM NaCl, 5 mM DTT, 1 mM EDTA) at 4° C. overnight and then applied over Ni-NTA acid agarose resin equilibrated with wash buffer. The column was washed with 2×8 mL of wash buffer, and the resulting flow-through and washes were pooled, concentrated, and applied to an S75 26/60 column equilibrated in gel filtration buffer (20 mM Hepes pH 7.6, 150 mM NaCl, 1 mM DTT, 1% glycerol). Purity was verified by SDS-PAGE and combined fractions were concentrated and flash frozen at −80° C.
Rosetta2(DE3) cells (Novagen) were transformed with pDW363 vector encoding 6×-His-SUMO-peptide fusions and grown in 20 mL of LB+100 μg/mL Ampicillin+0.050 mM D-(+)-Biotin dissolved in DMSO for in vivo biotinylation. Cells were grown to an OD of 0.5-0.7 with 1 mM IPTG and induced for 4-6 hours at 37° C. Pellets were spun down and frozen and −80° C. for at least 2 hours. These pellets were then thawed and resuspended in B-PER reagent (ThermoFisher) at 4 mL/gram of pellet with 0.2 mM PMSF. This suspension was shaken at 25° C. for 10-15 minutes, and then spun down at 15,000 g for 10 minutes. The supernatant was applied to 250 μL of Ni-NTA acid agarose resin equilibrated in 20 mM Tris pH 8.0, 500 mM NaCl, 20 mM Imidazole (Buffer A), and then washed 3 times with 1 mL of this buffer. Peptides were eluted in 1.8 mL of 20 mM Tris pH 8.0, 500 mM NaCl, 300 mM imidazole to use in BLI assays.

[2] = system: MV^D7shEVL cells expressing GFP-ENAH, GFP-EVL or GFP-VASP; assay: Live-cell imaging of PCARE constructs co-expressed with GFP-tagged Ena/VASP paralogs; type: cell-based, mice
From the text: MV^D7 are embryonic fibroblasts derived from Enah^−/− Vasp^−/− mice, with low Evl expression (Auerbach 2003, Damiano-Guercio 2020). As Ena/VASP family members are known to heterotetramerize (Riquelme 2015), we used an shRNA against Evl to provide a clean background (average knockdown of MV^D7shEVL versus MV^D7 42.8+/−1.8% by qPCR, 3 biological replicates).
Together, these findings indicate that PCARE interacts specifically with ENAH and is capable of recruiting ENAH away from its normal functional sites. […]
Cells were imaged on a Ti-E inverted microscope (Nikon), with a 100× Apo TIRF 1.49 NA objective (Nikon) and an ORCA-Flash 4.0 V2 CMOS camera (Hamamatsu). For focal adhesion assessment, cells were imaged with total internal reflection fluorescence (TIRF) microscopy. To increase the depth of imaging for examination of mitochondrial localization, standard widefield fluorescence microscopy was used. Focal adhesion quantification was performed as previously described (Puleo 2019). […] Focal adhesion area was quantified by measuring the paxillin area of each cell within the whole cell area, or by examining individual focal adhesions. […]

[3] = target: T1, ENAH EVH1 domain; assay: Isothermal titration calorimetry (ITC), SUMO-peptide titrated into ENAH EVH1 domain; type: binding; details: 25° C.
Description: ITC experiments were performed with two replicates using a VP-ITC microcalorimeter (MicroCal LLC). To prepare samples for ITC, 2.5 mL of 100 μM ENAH EVH1 domain and 1 mL of 800 μM-1.2 mM of SUMO-peptide fusions were dialyzed against 2 μL of ITC Buffer (20 mM Hepes pH 7.6, 150 mM NaCl, 1 mM TCEP) at 4° C. overnight. The concentrations of proteins were remeasured after dialysis on the day of experiment. SUMO-peptide was titrated into ENAH EVH1 domain at 25° C. Data analysis and curve fitting were performed with the Origin 7.0 software (OriginLab). Errors reported as the standard deviation of two replicates.
SUMO-peptide fusions were cloned into a pDW363 vector that appends a BAP and 6×-His tag to the N-terminus of the protein and transformed into Rosetta2(DE3) cells. For ITC experiments, these cells were expressed in TB supplemented with 100 μg/mL ampicillin, grown to an O.D. 600 of 0.5-0.7, and induced with 1 mM IPTG. Induced cultures were purified as described above for the pMCGS7 constructs, with the exception of the TEV cleavage step. Instead, after elution with elution buffer, the sample was directly applied to the S75 26/60 column equilibrated in gel filtration buffer. Fractions were pooled, concentrated, and flash frozen at −80° C.

T1 sequence (Q8N8S7 with tags, fused parts or gaps): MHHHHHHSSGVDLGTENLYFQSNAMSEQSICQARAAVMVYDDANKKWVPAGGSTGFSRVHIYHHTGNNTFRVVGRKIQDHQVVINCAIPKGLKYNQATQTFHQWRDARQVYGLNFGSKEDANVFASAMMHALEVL

Row | Compound | binding to monomeric ENAH EVH1 domain by BLI, in words [1] | ITC binding model [3] | ITC thermodynamic driving force of binding [3] | also measured
1 | PPAPEEQDLSMADFPPPEEAFFSVASPEPAGPSGSP [KIAAA1522] | mid-micromolar affinity | – | – | –
2 | mRuby2-PCARE: PCARE^822-848 tagged at the N-terminus with mRuby2 and a disordered linker, lentiviral expression ({mRuby2-disordered linker}-EMEGNLEHLPPPPMEVLMDKSFASLES; reading uncertain; UniProt A6NGG8 822-848, looked up, fragment) | – | – | – | localization of the PCARE construct ([2]; all conditions except co-expression with ENAH (GFP, ΔEVH1-ENAH, EVL, VASP)): diffuse cytoplasmic localization; localization of the PCARE construct ([2]; co-expressed with GFP-ENAH): moderately recruited to focal adhesions
3 | GSTQDVQSSPHNQFTFRPLPPPPPPPHACTCARKPP [TENM1] | – | – | – | Kd ([1]; BLI, ENAH EVH1 domain): > 60 µM
4 | CC[C@H](C)[C@H](NC(=O)[C@H](CO)NC(=O)[C@@H]1CCCN1C(=O)[C@H](CC(C)C)NC(=O)[C@H](C)NC(=O)[C@H](CO)NC(=O)[C@H](CO)NC(=O)[C@H](CC(=O)O)NC(=O)[C@H](CC(=O)O)NC(=O)[C@H](CC(C)C)NC(=O)[C@@H]1CCCN1C(=O)[C@@H]1CCCN1C(=O)[C@@H]1CCCN1C(=O)[C@@H]1CCCN1C(=O)[C@@H]1CCCN1C(=O)[C@@H]1CCCN1C(=O)[C@H](CC(C)C)NC(=O)[C@H](Cc1ccccc1)NC(=O)[C@H](CC(=O)O)NC(=O)CNC(=O)[C@H](CCC(=O)O)NC(=O)CNC(=O)CNC(=O)[C@@H]1CCCN1C(=O)[C@H](CCC(N)=O)NC(=O)[C@@H](N)CCCCN)C(=O)N[C@@H](CO)C(=O)NCC(=O)N[C@@H](CC(N)=O)C(=O)N[C@@H](Cc1ccccc1)C(=O)N1CCC[C@H]1C(=O)N1CCC[C@H]1C(=O)N1CCC[C@H]1C(=O)N1CCC[C@H]1C(=O)N1CCC[C@H]1C(=O)N[C@@H](CC(C)C)C(=O)O [LPP] | – | fit well to a 1:1 binding model | enthalpically driven | reduction in affinity ([1]; sequence between the two motifs replaced with a Gly-Ser linker): ~4 fold
5 | ADRSPFLPPPPPVTDCSQGSPLPHSPVFPPPPPEAL-OH [NHSL1] | – | fit well to a 1:1 binding model | enthalpically driven | –
6 | ILSGLPAPDFIDYPERQECNCRPQESPYVSGMKTCH [TRIM1, CXC-motif peptide from E3 ubiquitin ligase TRIM1] | did not saturate; also recorded: bound weakly and reversibly | – | – | –
